Reference: paper PMC6271642, “New Derivatives of 3,4-Dihydroisoquinoline-3-carboxylic Acid with Free-Radical Scavenging, D-Amino Acid Oxidase, Acetylcholinesterase and Butyrylcholinesterase Inhibitory Activity” (Molecules, 2014)

Columns and labels:
[1] = molecular target: T1, D-Amino acid oxidase from porcine kidney (DAAO) (Sus scrofa, UniProt P00371); assay: colorimetric, […],4-dinitrophenylhydrazine detection of keto acid; assay type: biochemical; conditions: D-Ala substrate, 0.2 M Tris-HCl pH 8.2, 37 °C, 30 min
T1 construct: gene DAO; native enzyme from porcine kidney, Sigma-Aldrich
T1 sequence (P00371 whole entry): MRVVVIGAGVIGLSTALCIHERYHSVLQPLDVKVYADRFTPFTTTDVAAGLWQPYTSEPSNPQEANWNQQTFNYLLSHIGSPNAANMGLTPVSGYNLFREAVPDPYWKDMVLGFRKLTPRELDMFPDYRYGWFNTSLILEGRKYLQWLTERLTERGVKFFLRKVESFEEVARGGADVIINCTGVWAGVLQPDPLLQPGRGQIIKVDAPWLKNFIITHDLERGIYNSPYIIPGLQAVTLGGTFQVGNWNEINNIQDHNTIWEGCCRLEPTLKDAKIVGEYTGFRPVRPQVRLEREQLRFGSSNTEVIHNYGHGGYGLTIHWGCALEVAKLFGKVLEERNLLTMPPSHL

[2] = molecular target: T1, D-Amino acid oxidase from porcine kidney (DAAO); assay: as above; assay type: biochemical; conditions: read-out: DAAO Inhibition [IC50] ^c/[%] ^d
[3] = molecular target: T2, butyrylcholinesterase from equine serum (BuChE) (Equus caballus, UniProt P81908); assay: biochemical
T2 construct: gene BCHE
T2 sequence (P81908 whole entry): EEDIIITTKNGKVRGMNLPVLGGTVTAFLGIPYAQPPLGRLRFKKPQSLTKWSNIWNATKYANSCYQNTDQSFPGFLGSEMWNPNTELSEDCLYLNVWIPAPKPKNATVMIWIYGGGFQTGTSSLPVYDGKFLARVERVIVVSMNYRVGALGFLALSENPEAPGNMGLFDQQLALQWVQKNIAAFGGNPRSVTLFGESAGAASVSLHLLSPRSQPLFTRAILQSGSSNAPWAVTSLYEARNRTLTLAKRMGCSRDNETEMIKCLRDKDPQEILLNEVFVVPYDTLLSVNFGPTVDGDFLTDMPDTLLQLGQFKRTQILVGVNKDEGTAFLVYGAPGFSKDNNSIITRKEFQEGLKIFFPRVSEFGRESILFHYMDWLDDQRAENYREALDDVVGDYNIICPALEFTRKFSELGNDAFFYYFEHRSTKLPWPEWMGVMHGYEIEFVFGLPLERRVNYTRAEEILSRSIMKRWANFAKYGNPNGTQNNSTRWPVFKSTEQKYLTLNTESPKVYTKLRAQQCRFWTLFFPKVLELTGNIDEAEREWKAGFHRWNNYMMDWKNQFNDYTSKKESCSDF

[4] = molecular target: acetylcholinesterase from Electrophorus electricus (AChE) (Electrophorus electricus, UniProt O42275); assay: biochemical
Sequence of acetylcholinesterase from Electrophorus electricus (AChE) (O42275 24-633): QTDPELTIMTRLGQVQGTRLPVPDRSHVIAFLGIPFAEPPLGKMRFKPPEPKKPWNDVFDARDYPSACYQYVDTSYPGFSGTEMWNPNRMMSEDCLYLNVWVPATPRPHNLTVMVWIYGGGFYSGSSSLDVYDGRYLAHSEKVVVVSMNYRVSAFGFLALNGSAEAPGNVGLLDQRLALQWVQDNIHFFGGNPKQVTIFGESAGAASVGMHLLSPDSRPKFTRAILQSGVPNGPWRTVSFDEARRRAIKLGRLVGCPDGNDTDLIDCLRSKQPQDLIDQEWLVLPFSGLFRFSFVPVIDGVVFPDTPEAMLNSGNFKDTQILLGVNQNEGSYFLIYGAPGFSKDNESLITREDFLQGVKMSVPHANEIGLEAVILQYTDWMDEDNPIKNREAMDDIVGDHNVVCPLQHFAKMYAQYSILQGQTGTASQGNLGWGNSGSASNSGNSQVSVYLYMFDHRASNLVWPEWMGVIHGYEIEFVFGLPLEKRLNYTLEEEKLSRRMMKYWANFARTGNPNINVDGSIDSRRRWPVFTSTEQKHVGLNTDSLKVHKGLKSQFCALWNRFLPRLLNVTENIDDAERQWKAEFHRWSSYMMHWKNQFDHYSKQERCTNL

| Compound | DAAO Inhibition [IC50] ^c/[%] ^d ([1]; unreliable (above the highest final concentration of about 3.57 mM, extrapolated)) | DAAO Inhibition [IC50] ^c/[%] ^d ([1]; 3570 µM, 3.57 mM compound) | IC50 [2] | IC50 [3] | IC50 [4] |
| --- | --- | --- | --- | --- | --- |
| O=C(O)C1Cc2c(Br)ccc(O)c2C=N1 (racemic) [5a, 5-Bromo-8-hydroxy-3,4-dihydroisoquinolin-3-carboxylic acid] | 8.46 mM |  |  |  |  |
| O=C(O)C1Cc2ccc(Br)c(O)c2C=N1 (racemic) [5b, 7-Bromo-8-hydroxy-3,4-dihydroisoquinolin-3-carboxylic acid] |  | 13.88% |  |  |  |
| O=C(O)C1Cc2cc(O)cc(O)c2C=N1 (racemic) [5c, 6,8-Dihydroxy-3,4-dihydroisoquinolin-3-carboxylic acid] |  |  | 1.66 mM |  |  |
| O=C(O)C1Cc2cc(O)c(O)c(I)c2C=N1 (racemic) [5d, 6,7-Dihydroxy-8-iodo-3,4-dihydroisoquinolin-3-carboxylic acid] |  |  | 3.35 mM |  |  |
| O=C(O)C1Cc2cc(O)c(O)cc2C=N1 (racemic) [5e, 6,7-Dihydroxy-3,4-dihydroisoquinolin-3-carboxylic acid] |  | 7.52% |  | 0.37 mM | 0.56 mM |
| O=C(O)C1Cc2c(O)c(O)cc(Br)c2C=N1 (racemic) [5f, 8-Bromo-5,6-dihydroxy-3,4-dihydroisoquinolin-3-carboxylic acid] |  |  | 2.06 mM |  | 0.54 mM |
| O=C(O)C1Cc2cc(O)c(O)c(Br)c2C=N1 (racemic) [5g, 8-Bromo-6,7-dihydroxy-3,4-dihydroisoquinolin-3-carboxylic acid] |  |  | 2 mM |  |  |
| O=C(O)C1Cc2cc(O)c(O)c(Cl)c2C=N1 (racemic) [5h, 8-Chloro-6,7-dihydroxy-3,4-dihydroisoquinolin-3-carboxylic acid] |  |  | 1.74 mM |  | 0.82 mM |
| O=C(O)C1Cc2cc(O)c(Br)c(O)c2C=N1 (racemic) [5j, 7-Bromo-6,8-dihydroxy-3,4-dihydroisoquinolin-3-carboxylic acid] |  | 11.50% |  | 0.64 mM | 0.47 mM |
| O=C(O)C1Cc2c(Cl)c(O)cc(O)c2C=N1 (racemic) [5k, 5-Chloro-6,8-dihydroxy-3,4-dihydroisoquinolin-3-carboxylic acid] |  | 7.27% |  | 1.42 mM | 0.59 mM |
| O=C(O)C1Cc2c(cc(O)c(O)c2Cl)C=N1 (racemic) [5l, 5-Chloro-6,7-dihydroxy-3,4-dihydroisoquinolin-3-carboxylic acid] |  |  | 1.29 mM | 0.17 mM |  |
| O=C(O)C1CCc2cc(O)c(O)cc2C=N1 (racemic) [compound 9, 7,8-Dihydroxy-4,5-dihydro-3H-2-benzazepine-3-carboxylic Acid] |  |  | 0.55 mM |  | 2.08 mM |
| O=C(O)c1ccccc1 [Benzoic acid, reference compound] |  |  | 2.28 mM |  |  |
| C[C@@]1(C(=O)O)Cc2cc(O)c(O)cc2C=N1 [compound 13, (S)-6,7-Dihydroxy-3-methyl-3,4-dihydroisoquinolin-3-carboxylic Acid] |  | 7.89% |  | 0.62 mM | 1.78 mM |
| CC1(C(=O)O)Cc2cc(O)c(O)cc2C2C(Cl)C(=O)N21 (stereo not shown) [compound 15, 1-Chloro-7,8-dihydroxy-4-methyl-2-oxo-1,4,5,9b-tetrahydro-2H-azeto[2,1-a]-isoquinoline-4-carboxylic Acid] |  |  | 2.02 mM | 1.75 mM |  |
